Measured values published in patent publication US20080096909A1, “APOMORPHINE INHIBITORS OF AMYLOID-BETA (ABETA) FIBRIL FORMATION AND THEIR USE IN AMYLOIDOSIS BASED DISEASE” (priority 2001, published 2008).
Where a name gives a salt, the structure may show the parent alone.

Assays:
Aβ 1-40 [1] = target: T1, Aβ 1-40 (Homo sapiens, UniProt P05067); experiment: Electron microscopy of Aβ aggregates in the presence of inhibitor; format: biochemical; parameters: Amyloid-β (Aβ 1-40) was purchased from California Peptides (Lot # SF104); purchased California Peptides Lot # SF104; details: for Protofibril assembly into fibrils when compound is added to pre-incubated Aβ (EM and sedimentation velocity): Aβ pre-incubated 18-20 hr at 37° C., then three to nine days with compound
T1 sequence (P05067 672-711): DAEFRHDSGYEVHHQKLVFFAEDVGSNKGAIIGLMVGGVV
Experimental: Electron Microscopy. Electron microscopy was used to follow the changes in size and structural morphology of Aβ aggregates in the presence and absence of inhibitor at 37° C. as a function of time. EM samples were prepared by placing 5 μL of the Aβ solution on a carbon-coated grid and allowing the solution to stand for 2 min before removing excess solution. The grid was then washed once with distilled water and once with 1% uranyl acetate before staining the sample with fresh 1% uranyl acetate for another 2 min. The samples were then studied in a Phillips CM-100 electron microscope. The grids were thoroughly examined to get an overall statistical evaluation of the structures present in the sample. All electron micrographs were taken at 100 kV.

Aβ 1-40 [2] = target: T1, Aβ 1-40; experiment: Thioflavin T (ThT) fluorescence assay for fibril formation; format: biochemical; parameters: Amyloid-β (Aβ 1-40) was purchased from California Peptides (Lot # SF104); purchased California Peptides Lot # SF104; details: for Thioflavin T signal after longer incubation: longer incubation at 37° C., some long fibrils formed; for Thioflavin T signal with sodium metabisulphite added: stock solutions containing 1% (v/v) sodium metabisulphite, 37° C., pH 7.4, 3 days
Experimental: Preparation of Stock Peptide Solutions for Fibrillization Studies. Stock solutions of the inhibitors were prepared by dissolving the compounds at a concentration of 5-7 mM in water or in 1-1.5% DMSO solutions (for compounds with reduced solubility). Amyloid-β (Aβ 1-40) was purchased from California Peptides (Lot # SF104). Aβ 1-40 stock solutions were prepared by dissolving purified and lyophilized peptide in cold double distilled water to yield stock solutions at a concentration of 2 mg/mL. The stock solutions were used within 10-30 minutes of dissolution. Samples for fibril formation assay were prepared by diluting the appropriate amount of Aβ stock with pH 7.4 Tris-HCl buffer (50 mM Tris, 150 mM NaCl) to afford a final peptide concentration of 100 μM. […] Analytical ultracentrifugation, and electron microscopy were periodically used to ensure that we start our experiments with a hydrodynamically defined Aβ monomer, and the absence of any preformed fibrils in solution.
Thioflavin T (ThT) Fluorescence Assay for Fibril Formation. Thioflavin T was purchased from Aldrich (70% purity) and was recrystallized from benzene/ethanol (1:1) to afford yellow crystals (36). Thioflavin T binding assays were performed by addition of 50 μL of 100 μM Aβ solutions, which were incubated at 37° C. in the absence and presence of inhibitors, to 450 μL solution of 10 μM Thioflavin T in phosphate buffer (10 mM phosphate, 100 mM KCl). The solutions were mixed and fluorescence measurements were recorded in Biosystems model spectrofluorimeter at 25° C. using a 1 cm path length quartz cell. An excitation slit width of 4 nm and an emission slit width of 8 nm were employed. The excitation wavelength was set to 450 nm and emission monitored from 460-630 nm. The relative fluorescence at 482 nm was plotted for each sample, and was used as a measure of the amount of fibrillar aggregates in solution.

Aβ 1-40 [3] = target: T1, Aβ 1-40; experiment: Sedimentation velocity of Aβ quaternary structures in the presence of inhibitors; format: biochemical; parameters: Amyloid-β (Aβ 1-40) was purchased from California Peptides (Lot # SF104); purchased California Peptides Lot # SF104; details: for Amount of nonfibrillar assemblies (protofibrils) formed by Aβ alone relative to that obtained in the presence of compound: 20 hour incubation; for Sedimentation velocities, 20 h (average sedimentation coefficient): Aβ 1-40 100 μM + compound 100 μM, 37° C.
Experimental: Probing the Mechanism of Amyloid Fibril Formation Inhibition using Sedimentation Velocity Experiments. To probe the mechanism by which apomorphine and its structural analogues inhibit Aβ fibril formation, sedimentation velocity was used to determine the distribution and molecular size of quaternary structures of Aβ in the presence and absence of inhibitors. Aβ samples (100 μM) in a pH 7.4 buffer (50 mM Tris-HCl, 150 mM NaCl) were incubated at 37° C. for 1-10 days in the presence and absence of inhibitors, then transferred to 25° C. for 1-3 hours before the sedimentation experiments were carried out at 20° C. The sedimentation properties of Aβ 1-40 in the absence and presence of inhibitors were obtained from data collected on a temperature controlled Beckman XL-1 using 400-420 μL of peptide solutions and data were recorded at rotor speeds of 3,000-30,000 rpm in continuous mode with a step size of 0.005 cm. The sedimentation velocity absorbance profiles were then analyzed using the time derivative (dc/dt) analysis program, which was provided by J. Philo, to obtain the sedimentation coefficient distribution g(*s) for all the quaternary structures in solution as described previously (37, 38).
Fitting of the g(*s) profiles allows for the determination of the sedimentation coefficient (peak position, with a unit of Svedberg, 1 S=10^−13 s) and the diffusion coefficient (from the peak width, with a unit of Fick, 1 F=[…]). This method has the advantage of allowing for the calculation of the molecular weight of the sedimenting species using equation II since s and D can be obtained from the fitting analysis. [formula]
In the cases where the diffusion coefficient cannot be determined accurately, the molecular weight of a spherical protein can still be estimated by combining the Svedberg equation and Stokes equation for the frictional coefficient to obtain equation III which utilizes the estimated sedimentation coefficient: [formula]
Sedimentation velocity was also used to determine the amount of soluble Aβ and Aβ monomer in solution after sedimentation of Aβ aggregates. […] The percent of monomeric species in solution was calculated using equation IV at 50,000 rpm and after complete sedimentation of Aβ high MW oligomeric species. Sedimentation equilibrium studies of the unsedimented species were carried out to determine whether a monomer, dimer or a mixture was present in solution. % of unsedimented Aβ=1−(Absorbance(290 nm, 3000 rpm)−Absorbance(290 nm, 20,000-30,000 rpm))×100 (IV)

Aβ 1-40 [4] = target: T1, Aβ 1-40; experiment: Aβ 1-40 fibril formation inhibition judged by ThT, sedimentation velocity and electron microscopy; details: Aβ 1-40 100 μM; for Effect on Aβ 1-40 fibril formation (ThT, sedimentation velocity, EM): pH 7.4, 37° C., 3 days
[5] = Aβ coincubated with D030, 11 days at 37° C.

SMILES | Protofibril assembly into fibrils when compound is added to pre-incubated Aβ (EM and sedimentation velocity) (Aβ 1-40 [1]) | Thioflavin T signal after longer incubation (Aβ 1-40 [2]) | Thioflavin T signal with sodium metabisulphite added (Aβ 1-40 [2]) | Amount of nonfibrillar assemblies (protofibrils) formed by Aβ alone relative to that obtained in the presence of compound (Aβ 1-40 [3]) [%] | Sedimentation velocities, 20 h (average sedimentation coefficient) (Aβ 1-40 [3]) [S] | Effect on Aβ 1-40 fibril formation (ThT, sedimentation velocity, EM) (Aβ 1-40 [4]) | further results
CCCN1CCc2cccc3c2[C@H]1Cc1ccc(O)c(O)c1-3.Cl [D027, R(−)-Propylnorapomorphine hydrochloride] | no fibril formation | did not exhibit any changes | restoration of the ThT signal | ~30 | 33 | – | Inhibition of Aβ fibril formation by EM, aged or freshly prepared stock solutions (Aβ 1-40 [1]; three to four days at 37° C.): effective inhibition of Aβ fibril formation
Br.CCCN1CCc2cc(O)cc3c2[C@H]1Cc1ccc(O)c(O)c1-3 [D029, R(−)-2,10,11-Trihydroxy-N-propylnorapomorphine hydrobromide] | exhibited similar behavior | did not exhibit any changes | restoration of the ThT signal | ~30 | 35 | – | –
Br.CN1CCc2cc(O)cc3c2[C@H]1Cc1ccc(O)c(O)c1-3 [D030, R(−)-2,10,11-Trihydroxyaporphine hydrobromide] | least effective compound towards inhibiting protofibril assembly into fibrils | did not exhibit any changes | restoration of the ThT signal | ~30 | 33 | – | Concentration at which Aβ 1-40 fibril formation is inhibited (Aβ 1-40 [4]; incubation period of three days): 100 µM; Incubation period during which nonfibrillar assemblies remain the dominant species (EM and sedimentation velocity) (Aβ 1-40 [1]; 37° C., incubation extended to nine days): 1 to 3 days; Structures seen by EM after 9 days (Aβ 1-40 [1]; Aβ 100 μM, pH 7.4, 9 days at 37° C.): accumulation of some long fibrils in solution; Structures seen by EM after 11 days (Aβ 1-40 [1]; [5]): significant amounts of fibrils in solution; Thioflavin T signal after 11 days (Aβ 1-40 [2]; [5]): did not show a ThT signal
Br.Oc1ccc2c(c1O)-c1cccc3c1[C@@H](C2)NCC3 [D040, R(−)-Norapomorphine hydrobromide] | exhibited similar behavior | did not exhibit any changes | restoration of the ThT signal | ~30 | 31 | – | –
CCCN1CCc2cccc3c2[C@H]1Cc1ccc2c(c1-3)OCO2.Cl [M121, R(−)-10,11-Methylenedioxy-N-n-propylnoraporphine hydrochloride] | – | – | – | – | – | showed no effect | –
COc1ccc2c(c1O)-c1cccc3c1[C@@H](C2)N(C)CC3.Cl [R(−)-apocodeine, R(−)-Apocodeine hydrochloride] | – | – | – | – | – | showed no effect | –
COc1ccc2c(c1O)-c1c3c(cc4c1[C@H](C2)N(C)CC4)OCO3 [bulbocapnine, Bulbocapnine hydrochloride] | – | – | – | – | – | showed no effect | –
COc1ccc2c(c1O)-c1c(OC)c(OC)cc3c1[C@H](C2)N(C)CC3.Cl [isocrydine, Isocrydine hydrochloride] | – | – | – | – | – | showed no effect | –
